The assay has as its target T1, HA-DOPr (HA-tagged δ opioid receptor) (Homo sapiens, UniProt P41143).
T1 construct: gene OPRD1; full-length wild type, HA-tagged
Description: [3H]-diprenorphine competition, HEK293 membranes. The format is binding. The conditions noted are these: read-out: [^3H]-Diprenorphine / pKi (converted). The source says: [3H]-diprenorphine competition, HEK293 membranes on HA-DOPr (HA-tagged δ opioid receptor)

T1 sequence (P41143 whole entry, looked up): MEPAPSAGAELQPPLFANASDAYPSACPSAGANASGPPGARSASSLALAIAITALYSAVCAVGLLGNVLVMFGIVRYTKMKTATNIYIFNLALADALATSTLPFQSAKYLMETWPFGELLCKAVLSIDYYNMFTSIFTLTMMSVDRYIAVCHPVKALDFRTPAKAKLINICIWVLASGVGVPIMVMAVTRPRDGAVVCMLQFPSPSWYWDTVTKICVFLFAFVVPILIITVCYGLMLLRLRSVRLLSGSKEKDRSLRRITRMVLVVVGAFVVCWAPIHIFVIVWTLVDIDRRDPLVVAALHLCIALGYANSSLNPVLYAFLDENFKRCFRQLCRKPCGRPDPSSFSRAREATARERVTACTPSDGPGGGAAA

For `CN(C)C(=O)c1ccc(C(=C2CCN(Cc3cncs3)CC2)c2cccc(C(N)=O)c2)cc1` [PN6047, 3-[[4-(dimethylcarbamoyl)phenyl]-[1-(thiazol-5-ylmethyl)-4-piperidylidene]methyl]benzamide], the Ki was 56.2 nM.
